Data set [1] can be described thus: Hygroscopicity, % weight gain in 1 week at 56% and 98% relative humidity. The data set is classed as physicochemical. The following applies: one week at 56% / 98% RH.
The conditions of data set [2]: 0.05 M phosphate buffer, pH 7.0 and 2.5.

SMILES strings stand for the structures. Counter-ions that a name gives are not always drawn.

For `Nc1ncn([C@@H]2O[C@H](CO)C(O)C2O)c(=O)n1` (stereo partly shown) [Compound 19, azacitidine mesylate], for the setting “1.0 mg in water”, the “rate of dissolution compared with free base (in words)” value is reported as “less than the free azacitidine base”. Besides, the “Dissolution In water (1.0 mg/mL)” value (time to dissolve, with Sonication) was determined as 1 min. In addition, in data set [1], the “hygroscopicity compared with free base (in words)” value was “more hydroscopic than free azacitidine”. For the same compound, the “solution stability compared with free base (in words)” value in data set [2] is “slightly less than the free azacitidine base”.
